Experimental data: patent publication US20150250174A1, “USE OF N-THIO-ANTHRANILAMIDE COMPOUNDS ON CULTIVATED PLANTS” (BASF SE, priority 2012, published 2015)

How the values were obtained:
Anticarsia gemmatalis [1] = assay: Another test on a non-GM soybean variety (feeding damage); format: in vivo; conditions: 12.5 g a.i./ha
Anticarsia gemmatalis [2] = conditions: 12.5 g a.i./ha; 5 days after application; GMO soybean BMX Potencia RR
Anticarsia gemmatalis [3] = assay: whole plant or invertebrate; conditions: in Glycine max, 48 h, read-out: mortality 2 DAA

## CCS(CC)=NC(=O)c1cc(Cl)cc(C)c1NC(=O)c1cc(C(F)(F)F)nn1-c1ncccc1Cl [compound I-11, 2-(3-chloro-2-pyridyl)-N-[2-methyl-4-chloro-6-[(diethyl-λ^4-sulfanylidene)carbamoyl]phenyl]-5-(trifluoromethyl)pyrazole-3-carboxamide]
Anticarsia gemmatalis [1]
  reduction in feeding damage compared to the untreated controls: 97%
Anticarsia gemmatalis [2]
  reduction of feeding damage compared to the untreated controls: 100%
Anticarsia gemmatalis [3]
  mortality at 6.25 g/ha: 83%
  mortality at 50 g/ha: 87%
